Test results taken from patent publication US20240262795A1, “PYRAZINE COMPOUNDS AS INHIBITORS OF FLT3” (Biomea Fusion, Inc., priority 2021, published 2024).
pIC50: −log10 of the molar value.

Assays:
Assay type in all cases: cell-based, human
MOLM-13 = assay: Proliferation inhibition, CellTiter-Glo, MOLM-13; details: Homo sapiens, 96 h; MOLM-13 cells, IC50 (4 days), CellTiter-Glo; read-out: MOLM-13 IC50
Source text: (§1) The proliferation inhibitory effect was investigated in human AML cell lines MOLM-13 (AddexBio: C0003003) and MV-4-11 (ATCC: CRL-9591), and CML cell line […] (ATCC: CRL-3343). Molm-13 is heterozygous for FLT3-ITD mutation, while MV4-11 is homozygous for FLT3-ITD (Quentmeier H, et al., Leukemia. 17(1):120-4). […] Cells were maintained in RPMI-1640 medium (ThermoFisher catalog no. 61870036) supplemented with 10% of Heat Inactivated FBS (ThermoFisher catalog no. A31605) and 1% Pen-Strep (ThermoFisher catalog no. 10378016) and cultured at 37° C. in a humidified incubator with 5% CO2. Cell lines were grown by […], and the cells were maintained in a range 70%-80% confluency.
(§2) ATP is present in all metabolically active cells and is considered as a marker for cell viability and proliferation. Metabolic cell activity was determined using the CellTiter-Glo kit (Promega catalog no. G7572), an ATP monitoring system based on the production of luminescence by the reaction of ATP with added UltraGlo® recombinant luciferase (Kawano et al., 2016, PLOS One, 8; 11(7):e0158888), according to the supplier's experimental recommendations. The assay was based on a 96 well plate format.
(§3) Test compounds were dissolved at 10 mM in DMSO (Sigma catalog no. D8418; purity≥99.9%) and stored at −20° C. Eight concentrations of test compound were assessed in duplicate in an individual test occasion in parallel in the selected cell lines. Gilteratinib and FF-10101 were used as reference compounds and tested in duplicate at eight concentrations. 100% of proliferation is represented by the untreated cells (0.2% DMSO).
(§4) On the day of the experiment, cells were quantified with the cell viability analyzer NucleoCounter (Chemometec NC-200) and diluted with fresh medium to obtain the cell density of about 10,000 cells per 200 μL medium. 200 μL of cell suspension were added into wells in the 96 well plate.
(§5) After 2 hours from seeding cells, compounds at desired concentrations were added using a D300e compound dispenser (Life Sciences Tecan D300) with shaking between each compound dispensed. Assay plates were incubated at 37° C. in a humidified incubator with 5% CO2.
(§6) On day 4 (˜96 hrs after compound addition) assay plates were equilibrated at room temperature for approximately 15 min, and then 40 μL/well of the Promega CellTiterGlo® reagent was added. Contents were mixed for 5 min on an orbital shaker to promote cell lysis, and then incubated at room temperature for an additional 10 min in the dark to stabilize the luminescent signal. Luminescence was read by using a GloMlax GM300 plate reader (Promega) using the luminescence for 96 well plate standard protocol.
(§7) Results were analyzed by GraphPad (Prism) and IC50 values were calculated by non-linear regression using four parameter-logistic equation.

MV-4-11 = assay: Proliferation inhibition, CellTiter-Glo, MV-4-11; details: Homo sapiens, MV4-11, 96 h; MV-4:11 cells, IC50 (4 days), CellTiter-Glo; read-out: MV-4:11 IC50
Source text: as §1, §2, §3, §4, §5, §6, §7

K-562 = assay: Proliferation inhibition, CellTiter-Glo, K-562; details: Homo sapiens, K562, 96 h; K-562 cells, IC50 (4 days), CellTiter-Glo; read-out: K-562 IC50
Source text: as §1, §2, §3, §4, §5, §6, §7

For CCc1nc(C(N)=O)c(Nc2ccc(F)c(CCNC(=O)CN(C)C(=O)/C=C/CN3CCC3)c2)nc1C1CC1 [Compound 607, (E)-3-((3-(2-(2-(4-(azetidin-1-yl)-N-methylbut-2-enamido)acetamido)ethyl)-4-fluorophenyl)amino)-5-cyclopropyl-6-ethylpyrazine-2-carboxamide], the pIC50 (MOLM-13) was 8.00 to 9.00, the pIC50 (MV-4-11) was 8.00 to 9.00 and the pIC50 (K-562) was < 6.30.

With Cc1cc(C(N)=O)c(Nc2cccc(CCNC(=O)[C@H](C)N(C)C(=O)/C=C/CN(C)C)c2)nc1C1CC1 [Compound 319, 6-cyclopropyl-2-[3-[2-[[(2S)-2-[[(E)-4-(dimethylamino)but-2-enoyl]-methyl-amino]propanoyl]amino]ethyl]anilino]-5-methyl-pyridine-3-carboxamide] the pIC50 (MOLM-13) was 7.00 to 8.00, the pIC50 (MV-4-11) was 7.00 to 8.00 and the pIC50 (K-562) was < 6.30.

Cc1cc(C(N)=O)c(Nc2cncc(CCNC(=O)[C@H](C)N(C)C(=O)/C=C/CN(C)C)c2)nc1C1CC1 [Compound 323, (S,E)-6-cyclopropyl-2-((5-(2-(2-(4-(dimethylamino)-N-methylbut-2 enamido)propanamido)ethyl)pyridin-3-yl)amino)-5-methylnicotinamide] gave a pIC50 (MOLM-13) of 6.30 to 7.00 and a pIC50 (MV-4-11) of 7.00 to 8.00.

CCc1nc(C(N)=O)c(Nc2cccc([C@H](C)CNC(=O)[C@H](C)N(C)C(=O)/C=C/CN(C)C)c2)nc1C [Compound 325, 3-[3-[(1S)-2-[[(2S)-2-[[(E)-4-(dimethylamino)but-2-enoyl]-methyl-amino]propanoyl]amino]-1-methyl-ethyl]anilino]-6-ethyl-5-methyl-pyrazine-2-carboxamide] was tested, and the pIC50 (MOLM-13) was 6.30 to 7.00, the pIC50 (MV-4-11) was 6.30 to 7.00 and the pIC50 (K-562) was < 6.30.

C=CC(=O)N(C)CC(=O)NCCc1cccc(Nc2nc(N(C)C(C)C)c(C)nc2C(N)=O)c1 [Compound 309, 5-[isopropyl(methyl)amino]-6-methyl-3-[3-[2-[[2-[methyl(prop-2-enoyl)amino]acetyl]amino]ethyl]anilino]pyrazine-2-carboxamide] was tested, and the pIC50 (MOLM-13) was 6.30 to 7.00, the pIC50 (MV-4-11) was 8.00 to 9.00 and the pIC50 (K-562) was < 6.30.

With C=C(F)C(=O)N(C)[C@@H](C)C(=O)NCCc1cccc(Nc2nc(C3CC3)c(CC)nc2C(N)=O)c1 [Compound 215, 5-cyclopropyl-6-ethyl-3-[3-[2-[[(2S)-2-[2-fluoroprop-2-enoyl(methyl)amino]propanoyl]amino]ethyl]anilino]pyrazine-2-carboxamide] the pIC50 (MOLM-13) was < 6.30, the pIC50 (MV-4-11) was < 6.30 and the pIC50 (K-562) was < 6.30.

With CCc1nc(C(N)=O)c(Nc2cccc(CCNC(=O)[C@H](C)N(C)C(=O)/C=C/CNC)c2)nc1C [Compound 227, (S,E)-6-ethyl-5-methyl-3-((3-(2-(2-(N-methyl-4-(methylamino)but-2-enamido)propanamido)ethyl)phenyl)amino)pyrazine-2-carboxamide] the pIC50 (MOLM-13) was 8.00 to 9.00, the pIC50 (MV-4-11) was 8.00 to 9.00 and the pIC50 (K-562) was < 6.30.

In the case of Cc1nc(Nc2cccc(CCNC(=O)[C@H](C)N(C)C(=O)/C=C/CN(C)C)c2)c(C(N)=O)nc1C [Compound 207, 3-[3-[2-[[(2S)-2-[[(E)-4-(dimethylamino)but-2-enoyl]-methyl-amino]propanoyl]amino]ethyl]anilino]-5,6-dimethyl-pyrazine-2-carboxamide], the pIC50 (MOLM-13) was 7.00 to 8.00, the pIC50 (MV-4-11) was 7.00 to 8.00 and the pIC50 (K-562) was < 6.30.

With C=CC(=O)N(C)[C@@H](C)C(=O)NCCc1cccc(Nc2nc(N(C)CC)c(C)nc2C(N)=O)c1 [Compound 225, 5-[ethyl(methyl)amino]-6-methyl-3-[3-[2-[[(2S)-2-[methyl(prop-2-enoyl)amino]propanoyl]amino]ethyl]anilino]pyrazine-2-carboxamide] the pIC50 (MOLM-13) was 7.00 to 8.00, the pIC50 (MV-4-11) was 8.00 to 9.00 and the pIC50 (K-562) was < 6.30.

In the case of C=CC(=O)N(C)[C@@H](C)C(=O)NCCc1cccc(Nc2nc(C3CC3)c(CC)nc2C(N)=O)c1 [Compound 208, 5-cyclopropyl-6-ethyl-3-[3-[2-[[(2S)-2-[methyl(prop-2-enoyl)amino]propanoyl]amino]ethyl]anilino]pyrazine-2-carboxamide], the pIC50 (MOLM-13) was 7.00 to 8.00, the pIC50 (MV-4-11) was 8.00 to 9.00 and the pIC50 (K-562) was < 6.30.

In the case of CCc1nc(C(N)=O)c(Nc2cccc(CCNC(=O)[C@@H](C)N(C)C(=O)/C=C/CN(C)C)c2)nc1C [Compound 234, 3-[3-[2-[[(2R)-2-[[(E)-4-(dimethylamino)but-2-enoyl]-methyl-amino]propanoyl]amino]ethyl]anilino]-6-ethyl-5-methyl-pyrazine-2-carboxamide], the pIC50 (MOLM-13) was < 6.30, the pIC50 (MV-4-11) was 7.00 to 8.00 and the pIC50 (K-562) was < 6.30.

For CCc1nc(C(N)=O)c(Nc2cccc(CCNC(=O)[C@H](C)N(C)C(=O)/C=C/CN3CCC3)c2)nc1C [Compound 202, (S,E)-3-((3-(2-(2-(4-(azetidin-1-yl)-N-methylbut-2-enamido)propanamido)ethyl)phenyl)amino)-6-ethyl-5-methylpyrazine-2-carboxamide], the pIC50 (MOLM-13) was 8.00 to 9.00, the pIC50 (MV-4-11) was 8.00 to 9.00 and the pIC50 (K-562) was < 6.30.

For Cc1nc(Nc2cc(F)cc(CCNC(=O)[C@H](C)N(C)C(=O)/C=C/CN(C)C)c2)c(C(N)=O)nc1C [Compound 245, 3-[3-[2-[[(2S)-2-[[(E)-4-(dimethylamino)but-2-enoyl]-methyl-amino]propanoyl]amino]ethyl]-5-fluoro-anilino]-5,6-dimethyl-pyrazine-2-carboxamide], the pIC50 (MOLM-13) was 7.00 to 8.00, the pIC50 (MV-4-11) was 8.00 to 9.00 and the pIC50 (K-562) was < 6.30.

For Cc1nc(Nc2cccc(CCNC(=O)[C@H](C)N(C)C(=O)/C=C/CN3CCC3)c2)c(C(N)=O)nc1C [Compound 214, 3-[3-[2-[[(2S)-2-[[(E)-4-(azetidin-1-yl)but-2-enoyl]-methyl-amino]propanoyl]amino]ethyl]anilino]-5,6-dimethyl-pyrazine-2-carboxamide], the pIC50 (MOLM-13) was 7.00 to 8.00, the pIC50 (MV-4-11) was 7.00 to 8.00 and the pIC50 (K-562) was < 6.30.

With [2H]C([2H])([2H])N(C/C=C/C(=O)N(C)[C@@H](C)C(=O)NCCc1cccc(Nc2nc(N(C)C(C)C)c(CC)nc2C(N)=O)c1)C([2H])([2H])[2H] [Compound 249, (S,E)-3-((3-(2-(2-(4-(bis(methyl-d3)amino)-N-methylbut-2-enamido)propanamido)ethyl)phenyl)amino)-6-ethyl-5-(isopropyl(methyl)amino)pyrazine-2-carboxamide] the pIC50 (MOLM-13) was > 9.00, the pIC50 (MV-4-11) was > 9.00 and the pIC50 (K-562) was < 6.30.

C=CC(=O)N(C)[C@@H](C)C(=O)NCCc1cccc(Nc2nc(C)c(C)nc2C(N)=O)c1 [Compound 238, 5,6-dimethyl-3-[3-[2-[[(2S)-2-[methyl(prop-2-enoyl)amino]propanoyl]amino]ethyl]anilino]pyrazine-2-carboxamide] was tested, and the pIC50 (MOLM-13) was < 6.30, the pIC50 (MV-4-11) was < 6.30 and the pIC50 (K-562) was < 6.30.

For CCc1nc(C(N)=O)c(Nc2cccc(C[C@H](C)NC(=O)[C@H](C)N(C)C(=O)/C=C/CN(C)C)c2)nc1C [Compound 317, 3-[3-[(2S)-2-[[(2S)-2-[[(E)-4-(dimethylamino)but-2-enoyl]-methyl-amino]propanoyl]amino]propyl]anilino]-6-ethyl-5-methyl-pyrazine-2-carboxamide], the pIC50 (MOLM-13) was 7.00 to 8.00, the pIC50 (MV-4-11) was 8.00 to 9.00 and the pIC50 (K-562) was < 6.30.

Cc1nc(C(N)=O)c(Nc2cccc(CCNC(=O)C(C)N(C)C(=O)/C=C/CN(C)C)c2)nc1C1CC1 (stereo not drawn) [Compound 211, 5-cyclopropyl-3-[3-[2-[2-[[(E)-4-(dimethylamino)but-2-enoyl]-methyl-amino]propanoylamino]ethyl]anilino]-6-methyl-pyrazine-2-carboxamide] was tested, and the pIC50 (MOLM-13) was 7.00 to 8.00, the pIC50 (MV-4-11) was 8.00 to 9.00 and the pIC50 (K-562) was < 6.30.

[2H]C([2H])([2H])N(C/C=C/C(=O)N(C)[C@@H](C)C(=O)NCCc1cccc(Nc2nc(NC(C)C)c(CC)nc2C(N)=O)c1)C([2H])([2H])[2H] [Compound 505, (S,E)-3-((3-(2-(2-(4-(bis(methyl-d3)amino)-N-methylbut-2-enamido)propanamido)ethyl)phenyl)amino)-6-ethyl-5-(isopropylamino)pyrazine-2-carboxamide] was tested, and the pIC50 (K-562) was < 6.30.
